Source: ChEMBL document CHEMBL5729557, “5-membered heteroaryl carboxamide compounds for treatment of HBV” (2023)

Test: Assay Measuring Activity of Test Compounds on Viral Production from HepAD38 Cells: HepAD38 cells grown in a T-150 flask (Corning, cat #: 430825) with Growth Medium (DMEM/F12 (1:1) (Hyclone, cat #: SH30023.02), 1× Pen/Strep (Invitrogen, cat #: 15140-122), 10% FBS (Tissue Culture Biologics, cat #: 101), 250 μg/mL G418 (Alfa Aesar, cat #: J62671), 1 μg/mL Tetracycline (Teknova, cat #: T3320)) were detached with 0.25% trypsin-EDTA to (Invitrogen, cat #: 25200-056). Tetracycline-free treatment medium (15 mL DMEM/F12 (1:1) 1× Pen/step, with 2% FBS, Tet-system approved (Clontech, cat #: 631106) were then added to mix, transferred into a 50 ml conical tube (Falcon, cat #: 21008-918,) and spun at 1300 rpm for 5 min. Pelleted cells were then re-suspended/washed with 50 mL of 1×DPBS (Invitrogen, cat #: 14190-136) 2 times and 50 mL treatment medium twice. HepAD38 cells were then re-suspended with 10 mL of treatment medium, syringed and counted. Wells of 96-well clear bottom TC plate (Corning, cat #: 3904,) were seeded at 50,000 cells/well in 180 μL of treatment medium, and 20 μL of either 10% DMSO (Sigma, cat #: D4540) as controls or a 10× solution of test compounds in 10% DMSO in treatment media was added for a final compound concentration starting at 10 μM, and plates were incubated in 5% CO2 incubator at 37° C. for 5 days.Subsequently viral load production was assayed by quantitative PCR (qPCR) of the HBV core sequence. PCR reaction mixture containing forward primers HBV-f 5′-CTGTGCCTTGGGTGGCTTT-3′ (IDT DNA), Reverse primers HBV-r 5′-[…]-3′ (IDT DNA), Fluorescent TaqMan™ Probes HBV-probe 5′-FAM/AGCTCCAAA/ZEN/[…]/3IABkFQ-3′ (IDT DNA), 10 μL/well of PerfeCTa® qPCR ToughMix® (Quanta Biosciences, Cat #: 95114-05K), and 6 μL/well of DEPC water (Alfa Aesar, cat #: J62087) was prepared. […] of supernatant was added to 16 μL of the reaction mixture in a qPCR plate (Applied Biosytems, Cat #: 4309849), sealed with a film (Applied Biosystems, Cat #: 4311971), centrifuged for a few seconds, and subsequently run on an Applied Biosystems VIIA7. The PCR mixture was incubated at 45° C. for 5 min, then 95° C. for 10 min, followed by 40 cycles of 10 seconds at 95° C. and 20 seconds at 60° C. Viral load was quantified against known HBV DNA standards by using ViiA™ 7 Software. Viral load in the supernatant from wells with treated cells were compared against viral load in supernatant from DMSO control wells (>3 per plate). Cell viability assay was performed with CellTiter-Glo Luminescent Cell Viability Assay (Promega, cat #: G7573) with modification. Mixed appropriate amount of CellTiter-Glo (CTG) 1×DPBS in a 1:1 ratio, added 100 uL of the mixture to each well followed completely removal of all supernatant in each well without touching cell surface. Incubated the plate at room temperature for 10 min on an orbital shaker, and then read the plate with a plate reader (TECAN M1000 or Envision).
Settings: not given

SMILES | EC50 [nM]
Cn1nc(C2CC3COC(=O)CC3C2)c(C(=O)Nc2ccc(F)c(Cl)c2)c1N (configuration not stated) | < 100
COC(=O)CC1(O)CC2CC(c3nn(C)c(N)c3C(=O)Nc3ccc(F)c(Cl)c3)CC2C1 (configuration not stated) | < 100

Same assay, conditions: HePAD38

SMILES | EC50
Cn1cc(C2CC3CC(c4nn(C)c(N)c4C(=O)Nc4ccc(F)c(Cl)c4)CC3C2)cn1 (configuration not stated) | < 100 nM
Cn1nc([C@@H]2CC[C@H](c3ccccc3)C2)c(C(=O)Nc2ccc(F)c(Cl)c2)c1N | < 100 nM
Cn1nc(C2CCC(c3ccc(F)cc3)C2)c(C(=O)Nc2ccc(F)c(Cl)c2)c1N (configuration not stated) | < 100 nM
COc1cc(-c2nccs2)ccc1C1CCC(c2nn(C)c(N)c2C(=O)Nc2ccc(F)c(Cl)c2)C1 (configuration not stated) | in the range around 5250 nM
Cn1nc([C@@H]2CC3CNC(=O)C[C@@H]3C2)c(C(=O)Nc2ccc(F)c(Cl)c2)c1N (some centres not stated) | in the range around 300 nM
Cn1nc(C2CC3CC(S(C)(=O)=O)CC3C2)c(C(=O)Nc2ccc(F)c(Cl)c2)c1N (configuration not stated) | < 100 nM
Cn1nc(C2CC3CC(NS(=O)(=O)C(F)(F)F)CC3C2)c(C(=O)Nc2ccc(F)c(Cl)c2)c1N (configuration not stated) | < 100 nM
Cn1nc(C2CC3CC(C)(O)CC3C2)c(C(=O)Nc2ccc(F)c(Cl)c2)c1N (configuration not stated) | < 100 nM
CCS(=O)(=O)CC1(O)CC2C[C@@H](c3nn(C)c(N)c3C(=O)Nc3ccc(F)c(Cl)c3)C[C@H]2C1 (some centres not stated) | < 100 nM
Cn1nc([C@@H]2CC3CC(O)(CS(=O)(=O)C4CC4)C[C@H]3C2)c(C(=O)Nc2ccc(F)c(Cl)c2)c1N (some centres not stated) | < 100 nM
COc1cccc(C2CCC(c3nn(C)c(N)c3C(=O)Nc3ccc(F)c(Cl)c3)C2)c1 (configuration not stated) | < 100 nM
Cn1nc(C2CC3CC(NS(C)(=O)=O)CC3C2)c(C(=O)Nc2ccc(F)c(Cl)c2)c1N (configuration not stated) | < 100 nM
Cn1nc(C2CC3CNCC3C2)c(C(=O)Nc2ccc(F)c(Cl)c2)c1N (configuration not stated) | in the range around 5250 nM
Cn1nc(C2CC3CC(OCC(F)(F)F)CC3C2)c(C(=O)Nc2ccc(F)c(Cl)c2)c1N (configuration not stated) | < 100 nM
COc1cccc([C@@H]2CC[C@H](c3nn(C)c(N)c3C(=O)Nc3ccc(F)c(Cl)c3)C2)c1 | < 100 nM
Cn1nc([C@H]2C[C@@H](c3ccccc3)C2)c(C(=O)Nc2ccc(F)c(Cl)c2)c1N | < 100 nM
CSC1CC2CC(c3nn(C)c(N)c3C(=O)Nc3ccc(F)c(Cl)c3)CC2C1 (configuration not stated) | < 100 nM
COc1cc(-c2c[nH]cn2)ccc1[C@H]1CC[C@@H](c2nn(C)c(N)c2C(=O)Nc2ccc(F)c(Cl)c2)C1 | in the range around 300 nM
Cn1nc([C@@H]2CC3CC(O)(CSC(C)(C)C)C[C@H]3C2)c(C(=O)Nc2ccc(F)c(Cl)c2)c1N (some centres not stated) | < 100 nM
CC(C)OCC1(O)CC2C[C@@H](c3nn(C)c(N)c3C(=O)Nc3ccc(F)c(Cl)c3)C[C@H]2C1 (some centres not stated) | in the range around 5250 nM
CN1CC2CC(c3nn(C)c(N)c3C(=O)Nc3ccc(F)c(Cl)c3)CC2C1 (configuration not stated) | in the range around 5250 nM
Cn1nc(C2CCC(c3ccccc3)C2)c(C(=O)Nc2ccc(F)c(C#N)c2)c1N (configuration not stated) | < 100 nM

SMILES | EC50
Cn1cc([C@H]2CC[C@@H](c3nn(C)c(N)c3C(=O)Nc3ccc(F)c(Cl)c3)C2)cn1 | < 100 nM
Cn1nc(C2CC3CC(NCCO)CC3C2)c(C(=O)Nc2ccc(F)c(Cl)c2)c1N (configuration not stated) | in the range around 300 nM
CNC(=O)C1CC2CC(c3nn(C)c(N)c3C(=O)Nc3ccc(F)c(Cl)c3)CC2C1 (configuration not stated) | < 100 nM
Cn1cc([C@H]2CC[C@H](c3nn(C)c(N)c3C(=O)Nc3ccc(F)c(Cl)c3)C2)cn1 | in the range around 300 nM
Cn1cc(C(=O)Nc2ccc(F)c(Cl)c2)c(C2CC3CC(=O)CC3C2)n1 (configuration not stated) | in the range around 5250 nM
CC(C)S(=O)(=O)N1CC2CC(c3nn(C)c(N)c3C(=O)Nc3ccc(F)c(Cl)c3)CC2C1 (configuration not stated) | < 100 nM
Cn1nc([C@@H]2CC3CC(O)(C[S+]([O-])CC(F)(F)F)C[C@@H]3C2)c(C(=O)Nc2ccc(F)c(Cl)c2)c1N (some centres not stated) | < 100 nM
Cn1nc(C2CC3CC(O)(C4CC4)CC3C2)c(C(=O)Nc2ccc(F)c(Cl)c2)c1N (configuration not stated) | < 100 nM
COc1cc(-c2cscn2)ccc1C1CCC(c2nn(C)c(N)c2C(=O)Nc2ccc(F)c(Cl)c2)C1 (configuration not stated) | < 100 nM
CC(=O)N1CC2CC(c3nn(C)c(N)c3C(=O)Nc3ccc(F)c(Cl)c3)CC2C1 (configuration not stated) | < 100 nM
Cn1nc(C2CC3CC(O)(C(=O)NC4CC4)CC3C2)c(C(=O)Nc2ccc(F)c(Cl)c2)c1N (configuration not stated) | in the range around 300 nM
COc1cc(-c2nccn2C)ccc1[C@H]1CC[C@@H](c2nn(C)c(N)c2C(=O)Nc2ccc(F)c(Cl)c2)C1 | in the range around 300 nM
CCOC(=O)c1c(C2CCC(c3ccccc3)C2)noc1N (configuration not stated) | in the range around 300 nM
Cn1nc(C2CC3CC(C#N)CC3C2)c(C(=O)Nc2ccc(F)c(Cl)c2)c1N (configuration not stated) | < 100 nM
Cn1nc(C2CCC(c3csc(C(F)(F)F)n3)C2)c(C(=O)Nc2ccc(F)c(Cl)c2)c1N (configuration not stated) | in the range around 5250 nM
Cn1nc(C2CC3CNC(=O)CC3C2)c(C(=O)Nc2ccc(F)c(Cl)c2)c1N (configuration not stated) | < 100 nM
Cn1nc([C@@H]2CC3CC(O)(CC(=O)O)C[C@H]3C2)c(C(=O)Nc2ccc(F)c(Cl)c2)c1N (some centres not stated) | < 100 nM
Cn1nc([C@@H]2CC3CC(O)(CN4CCOCC4)C[C@H]3C2)c(C(=O)Nc2ccc(F)c(Cl)c2)c1N (some centres not stated) | in the range around 300 nM
Cn1nc([C@H]2CC[C@@H](c3ccccc3)C2)c(C(=O)Nc2ccc(F)c(Cl)c2)c1N | < 100 nM
Cn1nc(C2CC3CC(O)(CSCCO)CC3C2)c(C(=O)Nc2ccc(F)c(Cl)c2)c1N (configuration not stated) | < 100 nM
Cn1nc([C@@H]2CC3CC(O)(CS(=O)(=O)C4CC4)C[C@@H]3C2)c(C(=O)Nc2ccc(F)c(Cl)c2)c1N (some centres not stated) | < 100 nM
CN(C)S(=O)(=O)CC1(O)CC2CC(c3nn(C)c(N)c3C(=O)Nc3ccc(F)c(Cl)c3)CC2C1 (configuration not stated) | < 100 nM

SMILES | EC50
Cn1nc(C2CC3CC4(CNC(=O)C4)CC3C2)c(C(=O)Nc2ccc(F)c(Cl)c2)c1N (configuration not stated) | < 100 nM
COc1cc(C(O)NCCN)ccc1C1CCC(c2nn(C)c(N)c2C(=O)Nc2ccc(F)c(Cl)c2)C1 (configuration not stated) | in the range around 300 nM
Cn1nc([C@@H]2CC3CC(O)(CS(=O)(=O)CCCN4CCCCC4)C[C@H]3C2)c(C(=O)Nc2ccc(F)c(Cl)c2)c1N (some centres not stated) | in the range around 300 nM
Cn1nc(C2CCC(c3ccc(OC(F)(F)F)cc3)C2)c(C(=O)Nc2ccc(F)c(Cl)c2)c1N (configuration not stated) | in the range around 5250 nM
Cn1nc(C2CC3CC4(CC3C2)OCCO4)c(C(=O)Nc2ccc(F)c(Cl)c2)c1N (configuration not stated) | < 100 nM
Cn1nc([C@@H]2CC3CNC(=O)C[C@H]3C2)c(C(=O)Nc2ccc(F)c(Cl)c2)c1N (some centres not stated) | < 100 nM
Cn1nc(C2CC3COC(=O)CC3C2)c(C(=O)Nc2ccc(F)c(Cl)c2)c1N (configuration not stated) | < 100 nM
CCS(=O)(=O)CC1(O)CC2C[C@@H](c3nn(C)c(N)c3C(=O)Nc3ccc(F)c(Cl)c3)C[C@@H]2C1 (some centres not stated) | < 100 nM
COC(=O)CC1(O)CC2CC(c3nn(C)c(N)c3C(=O)Nc3ccc(F)c(Cl)c3)CC2C1 (configuration not stated) | < 100 nM
Cn1nc(C2CC3CC(N4CCOC4=O)CC3C2)c(C(=O)Nc2ccc(F)c(Cl)c2)c1N (configuration not stated) | < 100 nM
COc1cc(-c2ncc[nH]2)ccc1[C@H]1CC[C@@H](c2nn(C)c(N)c2C(=O)Nc2ccc(F)c(Cl)c2)C1 | in the range around 5250 nM
COC(=O)N1CC2CC(c3nn(C)c(N)c3C(=O)Nc3ccc(F)c(Cl)c3)CC2C1 (configuration not stated) | < 100 nM
Cn1nc(C2CCC(c3cccnc3)C2)c(C(=O)Nc2ccc(F)c(Cl)c2)c1N (configuration not stated) | < 100 nM
Cn1nc([C@@H]2CC3C[S+]([O-])C[C@H]3C2)c(C(=O)Nc2ccc(F)c(Cl)c2)c1N (some centres not stated) | in the range around 5250 nM
Cn1nc(C2CC3CC(N4CCCC4)CC3C2)c(C(=O)Nc2ccc(F)c(Cl)c2)c1N (configuration not stated) | < 100 nM
CCS(=O)(=O)C1CC2CC(c3nn(C)c(N)c3C(=O)Nc3ccc(F)c(Cl)c3)CC2C1 (configuration not stated) | < 100 nM
CC(=O)Nc1ccc(C2CCC(c3nn(C)c(N)c3C(=O)Nc3ccc(F)c(Cl)c3)C2)cc1 (configuration not stated) | < 100 nM
CC[S+]([O-])C1CC2CC(c3nn(C)c(N)c3C(=O)Nc3ccc(F)c(Cl)c3)CC2C1 (configuration not stated) | < 100 nM
CC(C)Oc1ccc(C2CCC(c3nn(C)c(N)c3C(=O)Nc3ccc(F)c(Cl)c3)C2)cc1 (configuration not stated) | < 100 nM
COc1cc(C(=O)NCCS(C)(=O)=O)ccc1[C@H]1CC[C@@H](c2nn(C)c(N)c2C(=O)Nc2ccc(F)c(Cl)c2)C1 | in the range around 300 nM
Cn1cc(C(=O)Nc2ccc(F)c(Cl)c2)c(C2CC3CC(O)(CS(C)(=O)=O)CC3C2)n1 (configuration not stated) | in the range around 5250 nM
